Measurements from patent US20100022491A1, “4-HYDROXY-2-OXO-2,3-DIHYDRO-1,3-BENZOTHIAZOL-7YL COMPOUNDS FOR MODULATION OF B2-ADRENORECEPTOR ACTIVITY” (ASTRAZENECA AB, priority 2006, published 2010).
Counter-ions that a name gives are not always drawn.

Tests used:
Adrenergic β2 = biological target: T1, Adrenergic β2 (Homo sapiens, UniProt P07550); experiment: Adrenergic β2 mediated cAMP production in H292 cells; assay type: cell-based; details: for EC50 / β2 pEC50: H292 cells, cAMP by AlphaScreen, 60 minutes at room temperature, rolipram 300 μM; for EC50: read-out: β2 pEC50 (converted); for β2 Int Act: Intrinsic Activity as a fraction relative to the maximum activity determined for formoterol
T1 construct: Adherent H292 cells were removed from tissue culture flasks; endogenous in cells; host or cells: H292 cells
Method in brief: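 H292 cells pretreated 10 min with rolipram (300 μM final), then exposed to agonist 60 min at room temperature in HEPES-buffered HBSS, 1.6% DMSO final. Lysate cAMP quantified by AlphaScreen against a cAMP standard curve; four-parameter fit gives pEC50 and intrinsic activity relative to formoterol maximum.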

[1] = biological target: T2, recombinant human Dopamine Subtype D2s receptors (Homo sapiens, UniProt P14416); experiment: Dopamine D2 selectivity binding assay ([3H]-spiperone); details: inhibition of [3H]-spiperone (0.16 nM) binding; for IC50: read-out: D2 bind pIC50 (converted)
T2 construct: purchased Perkin Elmer
Method in brief: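 Recombinant human D2s membranes incubated 2 h at room temperature with 0.16 nM [3H]-spiperone in HEPES/EDTA/NaCl/gelatin buffer, pH 7.4; 10 μM haloperidol defined non-specific binding. Filter-bound radioactivity counted after cold washes. pIC50 from 4-parameter logistic fit of NSB-corrected specific binding.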

[2] = biological target: T3, recombinant human adrenergic beta 1 receptors (Homo sapiens, UniProt P08588); experiment: Adrenergic β1 selectivity binding assay ([125I]-Iodocyanopindolol); details: inhibition of [125I]-Iodocyanopindolol (0.036 nM) binding; for IC50: read-out: β1 bind p IC50 (converted)
T3 construct: purchased Euroscreen
Method in brief: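 Recombinant human β1 membranes in HEPES buffer pH 7.4 with 120 mM NaCl were incubated 2 hours at room temperature with 0.036 nM [^125I]-Iodocyanopindolol. Nonspecific binding defined by 10 μM propranolol; bound radioactivity counted after filtration. pIC50 from four-parameter logistic fit.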

T3 sequence (P08588 whole entry): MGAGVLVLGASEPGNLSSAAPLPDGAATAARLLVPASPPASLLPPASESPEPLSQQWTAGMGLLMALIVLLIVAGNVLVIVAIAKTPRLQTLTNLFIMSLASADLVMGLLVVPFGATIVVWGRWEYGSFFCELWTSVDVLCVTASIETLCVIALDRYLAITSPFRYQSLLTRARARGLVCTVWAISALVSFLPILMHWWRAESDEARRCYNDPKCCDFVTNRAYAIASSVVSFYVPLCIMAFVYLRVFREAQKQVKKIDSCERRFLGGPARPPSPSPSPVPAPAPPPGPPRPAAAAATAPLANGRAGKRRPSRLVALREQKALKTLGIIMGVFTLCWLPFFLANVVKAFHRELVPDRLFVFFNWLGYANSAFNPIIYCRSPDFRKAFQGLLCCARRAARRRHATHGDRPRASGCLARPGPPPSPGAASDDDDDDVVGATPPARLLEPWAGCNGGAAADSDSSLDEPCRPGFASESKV
T1 sequence (P07550 whole entry): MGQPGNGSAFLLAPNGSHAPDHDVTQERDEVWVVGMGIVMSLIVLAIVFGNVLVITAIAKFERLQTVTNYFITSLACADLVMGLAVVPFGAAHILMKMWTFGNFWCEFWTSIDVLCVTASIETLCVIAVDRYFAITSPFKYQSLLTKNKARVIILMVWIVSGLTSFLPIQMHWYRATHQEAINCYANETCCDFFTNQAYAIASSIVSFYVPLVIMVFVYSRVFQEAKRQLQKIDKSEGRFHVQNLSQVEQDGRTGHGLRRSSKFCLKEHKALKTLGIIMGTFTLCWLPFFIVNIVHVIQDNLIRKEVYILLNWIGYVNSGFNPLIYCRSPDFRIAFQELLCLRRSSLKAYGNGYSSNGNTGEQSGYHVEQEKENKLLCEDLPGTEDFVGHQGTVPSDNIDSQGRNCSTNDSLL
T2 sequence (P14416 1-414 isoform P14416-2): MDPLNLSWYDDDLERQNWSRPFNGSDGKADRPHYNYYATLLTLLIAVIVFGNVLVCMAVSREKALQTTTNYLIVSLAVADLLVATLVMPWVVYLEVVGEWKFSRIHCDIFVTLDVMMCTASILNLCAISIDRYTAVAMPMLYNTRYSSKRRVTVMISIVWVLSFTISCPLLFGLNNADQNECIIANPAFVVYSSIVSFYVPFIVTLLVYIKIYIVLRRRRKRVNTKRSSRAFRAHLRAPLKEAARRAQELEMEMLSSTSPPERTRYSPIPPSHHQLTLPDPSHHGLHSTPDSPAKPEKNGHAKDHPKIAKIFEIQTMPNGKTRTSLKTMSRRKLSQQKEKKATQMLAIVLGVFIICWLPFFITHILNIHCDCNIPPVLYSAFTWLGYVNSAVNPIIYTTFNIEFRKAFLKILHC

| EC50 (Adrenergic β2) | β2 Int Act (Adrenergic β2) | IC50 [1] | IC50 [2] | Compound | β2 pEC50 (Adrenergic β2) | D2 bind pIC50 [1] | β1 bind p IC50 [2] | β2 Int Act (Adrenergic β2; dihydrobromide salt) |
| --- | --- | --- | --- | --- | --- | --- | --- | --- |
| 0.00251 µM | 0.84 | 0.2 µM | 3.16 µM | O=C(CCNCCc1cccc(F)c1)N(CCNCCc1ccc(O)c2[nH]c(=O)sc12)C1CCCCCC1 [Example 36, N-Cycloheptyl-N^3-[2-(3-fluorophenyl)ethyl]-N-(2-{[2-(4-hydroxy-2-oxo-2,3-dihydro-1,3-benzothiazol-7-yl)ethyl]amino}ethyl)-β-alaninamide bis-trifluoroacetic acid salt] |  |  |  |  |
| 0.00501 µM | 0.96 | 0.316 µM | 3.16 µM | O=C(CCNCCc1cccc(Cl)c1)N(CCNCCc1ccc(O)c2[nH]c(=O)sc12)C1CCCC1 [Example 30, N^3-[2-(3-Chlorophenyl)ethyl]-N-cyclopentyl-N-(2-{[2-(4-hydroxy-2-oxo-2,3-dihydro-1,3-benzothiazol-7-yl)ethyl]amino}ethyl)-β-alaninamide bis-trifluoroacetic acid salt] |  |  |  |  |
| 0.00251 µM | 0.87 | 0.0501 µM | 3.16 µM | O=C(CCNCCc1cccc(Cl)c1)N(CCNCCc1ccc(O)c2[nH]c(=O)sc12)C1CCCCC1 [Example 12, N^3-[2-(3-Chlorophenyl)ethyl]-N-cyclohexyl-N-(2-{[2-(4-hydroxy-2-oxo-2,3-dihydro-1,3-benzothiazol-7-yl)ethyl]amino}ethyl)-β-alaninamide bis-trifluoroacetic acid salt] |  |  |  |  |
| 0.00158 µM | 0.90 | 0.158 µM | 3.16 µM | O=C(CCNCCc1ccccc1Cl)N(CCNCCc1ccc(O)c2[nH]c(=O)sc12)C1CCCCC1 [Example 17, N^3-[2-(2-Chlorophenyl)ethyl]-N-cyclohexyl-N-(2-{[2-(4-hydroxy-2-oxo-2,3-dihydro-1,3-benzothiazol-7-yl)ethyl]amino}ethyl)-β-alaninamide bis-trifluoroacetic salt] |  |  |  |  |

More lines, now with the values behind:

| Compound | EC50 (Adrenergic β2) | β2 Int Act (Adrenergic β2) | IC50 [1] | IC50 [2] | β2 pEC50 (Adrenergic β2) | D2 bind pIC50 [1] | β1 bind p IC50 [2] | β2 Int Act (Adrenergic β2; dihydrobromide salt) |
| --- | --- | --- | --- | --- | --- | --- | --- | --- |
| O=C(CCNCCc1cccc(F)c1)N(CCNCCc1ccc(O)c2[nH]c(=O)sc12)CC12CC3CC(CC(C3)C1)C2 [Example 60, N^1-(1-Adamantylmethyl)-N^3-[2-(3-fluorophenyl)ethyl]-N^1-(2-{[2-(4-hydroxy-2-oxo-2,3-dihydro-1,3-benzothiazol-7-yl)ethyl]amino}ethyl)-β-alaninamide bis-trifluoroacetic acid salt] | 0.02 µM | 0.76 | 0.794 µM | 2 µM |  |  |  |  |
| CCCC(CCC)N(CCNCCc1ccc(O)c2[nH]c(=O)sc12)C(=O)CCNCCc1cccc(F)c1 [Example 63, N^3-[2-(3-Fluorophenyl)ethyl]-N^1-(2-{[2-(4-hydroxy-2-oxo-2,3-dihydro-1,3-benzothiazol-7-yl)ethyl]amino}ethyl)-N^1-(1-propylbutyl)-β-alaninamide bis-trifluoroacetic acid salt] | 0.0794 µM | 0.93 | 0.2 µM | 2.51 µM |  |  |  |  |
| O=C(CCNCCc1cccc(F)c1F)N(CCNCCc1ccc(O)c2[nH]c(=O)sc12)C1CCCCC1 [Example 81, N^1-Cyclohexyl-N^3-[2-(2,3-difluorophenyl)ethyl]-N^1-(2-{[2-(4-hydroxy-2-oxo-2,3-dihydro-1,3-benzothiazol-7-yl)ethyl]amino}ethyl)-β-alaninamide bis-trifluoroacetic acid salt] | 0.00251 µM | 0.89 | 0.316 µM | 6.31 µM |  |  |  |  |
| COc1ccc(CCNCCC(=O)N(CCNCCc2ccc(O)c3[nH]c(=O)sc23)C2CCCCC2)cc1 [Example 68, N^1-Cyclohexyl-N^1-(2-{[2-(4-hydroxy-2-oxo-2,3-dihydro-1,3-benzothiazol-7-yl)ethyl]amino}ethyl)-N^3-[2-(4-methoxyphenyl)ethyl]-β-alaninamide bis-trifluoroacetic acid salt] | 0.01 µM | 0.68 | 0.0501 µM | 3.98 µM |  |  |  |  |
| CC(C)(C)CN(CCNCCc1ccc(O)c2[nH]c(=O)sc12)C(=O)CCNCCc1ccccc1 [Example 6, N-(2,2-Dimethylpropyl)-N-(2-{[2-(4-hydroxy-2-oxo-2,3-dihydro-1,3-benzothiazol-7-yl)ethyl]amino}ethyl)-N^3-(2-phenylethyl)-β-alaninamide bis-trifluoroacetic acid salt] | 0.002 µM | 0.89 | 0.2 µM | 0.794 µM |  |  |  |  |
| CC(C)(CO)CN(CCNCCc1ccc(O)c2[nH]c(=O)sc12)C(=O)CCNCCc1cccc(Cl)c1 [Example 66, N^3-[2-(3-Chlorophenyl)ethyl]-N^1-(3-hydroxy-2,2-dimethylpropyl)-N^1-(2-{[2-(4-hydroxy-2-oxo-2,3-dihydro-1,3-benzothiazol-7-yl)ethyl]amino}ethyl)-β-alaninamide bis-trifluoroacetic acid salt] | 0.0126 µM | 0.59 | 0.631 µM | 1.58 µM |  |  |  |  |
| O=C(CCNCCc1ccc(Cl)c(Cl)c1)N(CCNCCc1ccc(O)c2[nH]c(=O)sc12)C1CCOCC1 [Example 94, N^3-[2-(3,4-Dichlorophenyl)ethyl]-N-(2-{[2-(4-hydroxy-2-oxo-2,3-dihydro-1,3-benzothiazol-7-yl)ethyl]amino}ethyl)-N-(tetrahydro-2H-pyran-4-yl)-β-alaninamide dihydrobromide salt] |  |  |  |  | 8.1 | 6.1 | 5.7 |  |
| C[C@H](CNCCC(=O)N(CCNCCc1ccc(O)c2[nH]c(=O)sc12)C1CCCC1)c1ccccc1 [Example 31, N-cyclopentyl-N-(2-{[2-(4-hydroxy-2-oxo-2,3-dihydro-1,3-benzothiazol-7-yl)ethyl]amino}ethyl)-N^3-[(2S)-2-phenylpropyl]-β-alaninamide bis-trifluoroacetic acid salt] | 0.01 µM | 0.92 | 0.251 µM | 6.31 µM |  |  |  |  |
| O=C(CCNCCc1ccccc1)N(CCNCCc1ccc(O)c2[nH]c(=O)sc12)C1CCCCCC1 [Example 98, N-Cycloheptyl-N-(2-{[2-(4-hydroxy-2-oxo-2,3-dihydro-1,3-benzothiazol-7-yl)ethyl]amino}ethyl)-N^3-(2-phenylethyl)-β-alaninamide dihydrobromide salt] | 0.00158 µM |  | 0.158 µM | 2 µM |  |  |  | 0.8 |
| COc1cccc(CCNCCC(=O)N(CCNCCc2ccc(O)c3[nH]c(=O)sc23)CC(C)(C)C)c1 [Example 43, N^1-(2,2-Dimethylpropyl)-N^1-(2-{[2-(4-hydroxy-2-oxo-2,3-dihydro-1,3-benzothiazol-7-yl)ethyl]amino}ethyl)-N^3-[2-(3-methoxyphenyl)ethyl]-β-alaninamide bis-trifluoroacetic acid salt] | 0.01 µM | 0.67 | 0.2 µM | 5.01 µM |  |  |  |  |
| CC(C)(C)CN(CCNCCc1ccc(O)c2[nH]c(=O)sc12)C(=O)CCNCCc1cccc(Cl)c1 [Example 7, N^3-[2-(3-Chlorophenyl)ethyl]-N-(2,2-dimethylpropyl)-N-(2-{[2-(4-hydroxy-2-oxo-2,3-dihydro-1,3-benzothiazol-7-yl)ethyl]amino}ethyl)-β-alaninamide bis-trifluoroacetic acid salt] | 0.00398 µM | 0.68 | 0.316 µM | 3.16 µM |  |  |  |  |
| O=C(CCNCCc1cccc(F)c1)N(CCNCCc1ccc(O)c2[nH]c(=O)sc12)C1CCCCCC1 [Example 95, N-Cycloheptyl-N^3-[2-(3-fluorophenyl)ethyl]-N-(2-{[2-(4-hydroxy-2-oxo-2,3-dihydro-1,3-benzothiazol-7-yl)ethyl]amino}ethyl)-β-alaninamide dihydromide salt] |  |  |  |  | 8.6 | 6.7 | 5.5 |  |
| O=C(CCNCCc1ccc(F)cc1Cl)N(CCNCCc1ccc(O)c2[nH]c(=O)sc12)C1CCCCCC1 [Example 57, N^3-[2-(2-Chloro-4-fluorophenyl)ethyl]-N^1-cycloheptyl-N^1-(2-{[2-(4-hydroxy-2-oxo-2,3-dihydro-1,3-benzothiazol-7-yl)ethyl]amino}ethyl)-β-alaninamide bis-trifluoroacetic acid salt] | 0.02 µM | 0.72 | 0.0316 µM | 2.51 µM |  |  |  |  |
| O=C(CCNC[C@@H](O)c1ccccc1)N(CCNCCc1ccc(O)c2[nH]c(=O)sc12)C1CCCCC1 [Example 74, N^1-Cyclohexyl-N^1-(2-{[2-(4-hydroxy-2-oxo-2,3-dihydro-1,3-benzothiazol-7-yl)ethyl]amino}ethyl)-N^3-[(2S)-2-hydroxy-2-phenylethyl]-β-alaninamide bis-trifluoroacetic acid salt] | 0.0126 µM | 0.79 | 0.501 µM | 3.16 µM |  |  |  |  |
